# Measured values from patent US8871753B2, “Macrocyclic compounds and their use as kinase inhibitors” (Incyte Corporation, priority 2008, dated 2014).
# Counter-ions that a name gives are not always drawn. Like-named read-outs stand apart in the source and are kept apart here.
# Columns and labels:
# Type in all cases: biochemical
# [1] = target: T1, human JAK3 (a.a. 781-1124) (Homo sapiens, UniProt P52333); assay: In vitro JAK kinase assay (HTRF, phosphorylation of a biotinylated peptide), JAK3
# T1 construct: JAK3 (a.a. 781-1124); His tag (N); made in house; host or cells: insect cells (baculovirus)
# T1 sequence (P52333 781-1124): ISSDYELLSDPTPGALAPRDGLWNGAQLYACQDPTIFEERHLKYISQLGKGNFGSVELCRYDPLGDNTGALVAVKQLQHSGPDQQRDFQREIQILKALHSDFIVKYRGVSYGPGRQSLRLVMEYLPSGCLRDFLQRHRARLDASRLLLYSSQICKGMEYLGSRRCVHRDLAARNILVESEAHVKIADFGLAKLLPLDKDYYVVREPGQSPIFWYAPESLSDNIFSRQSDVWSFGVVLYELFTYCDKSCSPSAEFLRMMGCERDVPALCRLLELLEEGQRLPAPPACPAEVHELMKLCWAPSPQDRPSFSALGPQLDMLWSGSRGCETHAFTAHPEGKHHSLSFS
# In short: (§1)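 Phosphorylation of a biotinylated peptide by the JAK kinase domain, detected by HTRF with Eu-Py20 and SA-APC. ATP was 90 μM for JAK1, 30 μM for JAK2 and 3 μM for JAK3. Reactions ran 1 h at room temperature and were stopped with EDTA, followed by 40 min antibody binding.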
# [2] = target: T2, human JAK1 (a.a. 837-1142) (Homo sapiens, UniProt P23458); assay: In vitro JAK kinase assay (HTRF, phosphorylation of a biotinylated peptide), JAK1; settings: read-out: JAK1 IC50
# T2 construct: human JAK1 (a.a. 837-1142); His tag (N); made in house; host or cells: insect cells (baculovirus)
# T2 sequence (P23458 849-1154): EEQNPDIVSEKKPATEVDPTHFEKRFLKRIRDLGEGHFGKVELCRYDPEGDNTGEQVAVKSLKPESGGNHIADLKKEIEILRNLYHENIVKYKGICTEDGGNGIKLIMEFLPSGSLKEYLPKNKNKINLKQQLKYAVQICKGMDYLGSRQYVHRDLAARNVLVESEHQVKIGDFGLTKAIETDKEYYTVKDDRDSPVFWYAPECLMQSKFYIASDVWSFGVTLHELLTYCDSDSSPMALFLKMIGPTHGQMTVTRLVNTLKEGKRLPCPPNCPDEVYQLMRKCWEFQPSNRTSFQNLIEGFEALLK
# In short: as §1
# [3] = target: T3, human JAK2 (a.a. 828-1132) (Homo sapiens, UniProt O60674); assay: In vitro JAK kinase assay (HTRF, phosphorylation of a biotinylated peptide), JAK2
# T3 construct: JAK2 (a.a. 828-1132); His tag (N); made in house; host or cells: insect cells (baculovirus)
# T3 sequence (O60674 828-1132): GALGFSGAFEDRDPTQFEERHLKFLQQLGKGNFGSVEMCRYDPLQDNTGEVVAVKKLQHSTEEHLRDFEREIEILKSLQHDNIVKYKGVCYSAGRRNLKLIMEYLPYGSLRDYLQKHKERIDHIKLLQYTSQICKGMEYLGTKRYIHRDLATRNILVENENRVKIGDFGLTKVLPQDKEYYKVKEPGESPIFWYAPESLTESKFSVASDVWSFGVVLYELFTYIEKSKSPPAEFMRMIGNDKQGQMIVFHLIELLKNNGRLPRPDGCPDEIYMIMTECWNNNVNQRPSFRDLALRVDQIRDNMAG
# In short: as §1
# [4] = target: T4, Recombinant Human Anaplastic Lymphoma Kinase (Homo sapiens, UniProt Q9UM73); assay: ALK HTRF kinase assay
# T4 construct: purchased Invitrogen, Carlsbad, Calif
# T4 sequence (Q9UM73 19-1620): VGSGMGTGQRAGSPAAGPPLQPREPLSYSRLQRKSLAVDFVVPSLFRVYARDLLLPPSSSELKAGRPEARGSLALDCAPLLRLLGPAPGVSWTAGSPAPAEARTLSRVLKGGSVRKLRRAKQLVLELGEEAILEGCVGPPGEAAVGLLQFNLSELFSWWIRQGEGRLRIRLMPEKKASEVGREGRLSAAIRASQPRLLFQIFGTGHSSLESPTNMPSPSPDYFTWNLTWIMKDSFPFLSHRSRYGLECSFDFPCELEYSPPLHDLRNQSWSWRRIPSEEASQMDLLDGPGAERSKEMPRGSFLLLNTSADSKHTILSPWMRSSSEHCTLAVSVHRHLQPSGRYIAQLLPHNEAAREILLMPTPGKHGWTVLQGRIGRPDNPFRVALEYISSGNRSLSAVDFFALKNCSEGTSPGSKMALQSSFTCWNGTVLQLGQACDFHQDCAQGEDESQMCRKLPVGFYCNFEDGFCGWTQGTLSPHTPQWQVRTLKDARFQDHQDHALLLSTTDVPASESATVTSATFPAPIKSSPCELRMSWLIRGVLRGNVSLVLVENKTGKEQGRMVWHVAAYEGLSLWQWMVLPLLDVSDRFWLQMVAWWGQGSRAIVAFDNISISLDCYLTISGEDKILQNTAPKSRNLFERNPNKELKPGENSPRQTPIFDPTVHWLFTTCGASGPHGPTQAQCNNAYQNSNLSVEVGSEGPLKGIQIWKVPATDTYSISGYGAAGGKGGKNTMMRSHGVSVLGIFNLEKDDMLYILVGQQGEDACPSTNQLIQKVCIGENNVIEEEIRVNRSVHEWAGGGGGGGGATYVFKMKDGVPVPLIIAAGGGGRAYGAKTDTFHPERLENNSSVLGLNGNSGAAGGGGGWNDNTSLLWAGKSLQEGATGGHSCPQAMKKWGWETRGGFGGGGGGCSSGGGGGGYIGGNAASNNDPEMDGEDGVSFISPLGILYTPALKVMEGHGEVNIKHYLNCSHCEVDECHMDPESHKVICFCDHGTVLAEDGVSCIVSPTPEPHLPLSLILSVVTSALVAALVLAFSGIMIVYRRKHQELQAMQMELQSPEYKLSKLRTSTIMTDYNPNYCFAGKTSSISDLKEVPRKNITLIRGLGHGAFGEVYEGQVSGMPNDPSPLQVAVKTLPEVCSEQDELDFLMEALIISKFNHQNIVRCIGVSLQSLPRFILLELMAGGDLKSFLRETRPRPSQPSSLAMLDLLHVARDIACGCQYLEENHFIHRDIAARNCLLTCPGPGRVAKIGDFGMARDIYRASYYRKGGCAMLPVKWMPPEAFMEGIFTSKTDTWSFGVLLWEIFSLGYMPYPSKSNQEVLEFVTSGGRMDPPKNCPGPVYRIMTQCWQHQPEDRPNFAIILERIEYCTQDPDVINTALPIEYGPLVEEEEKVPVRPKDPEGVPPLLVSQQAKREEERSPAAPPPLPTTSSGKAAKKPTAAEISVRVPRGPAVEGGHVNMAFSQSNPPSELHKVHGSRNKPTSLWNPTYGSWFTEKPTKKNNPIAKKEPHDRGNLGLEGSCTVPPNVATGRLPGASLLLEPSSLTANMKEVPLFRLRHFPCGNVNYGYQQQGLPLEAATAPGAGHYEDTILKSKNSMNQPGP
# In short: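 Compounds were incubated with recombinant human ALK and a biotin-tagged peptide substrate. Product was captured with streptavidin-APC and probed with a europium anti-phosphotyrosine antibody, and plates were read for time-resolved fluorescence. Dose-response data were fitted to derive IC50.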
# TYK2 = TYK2 (Homo sapiens, UniProt P29597); assay: TYK2 kinase inhibition (Table A1)
# Sequence of TYK2 (P29597 whole entry): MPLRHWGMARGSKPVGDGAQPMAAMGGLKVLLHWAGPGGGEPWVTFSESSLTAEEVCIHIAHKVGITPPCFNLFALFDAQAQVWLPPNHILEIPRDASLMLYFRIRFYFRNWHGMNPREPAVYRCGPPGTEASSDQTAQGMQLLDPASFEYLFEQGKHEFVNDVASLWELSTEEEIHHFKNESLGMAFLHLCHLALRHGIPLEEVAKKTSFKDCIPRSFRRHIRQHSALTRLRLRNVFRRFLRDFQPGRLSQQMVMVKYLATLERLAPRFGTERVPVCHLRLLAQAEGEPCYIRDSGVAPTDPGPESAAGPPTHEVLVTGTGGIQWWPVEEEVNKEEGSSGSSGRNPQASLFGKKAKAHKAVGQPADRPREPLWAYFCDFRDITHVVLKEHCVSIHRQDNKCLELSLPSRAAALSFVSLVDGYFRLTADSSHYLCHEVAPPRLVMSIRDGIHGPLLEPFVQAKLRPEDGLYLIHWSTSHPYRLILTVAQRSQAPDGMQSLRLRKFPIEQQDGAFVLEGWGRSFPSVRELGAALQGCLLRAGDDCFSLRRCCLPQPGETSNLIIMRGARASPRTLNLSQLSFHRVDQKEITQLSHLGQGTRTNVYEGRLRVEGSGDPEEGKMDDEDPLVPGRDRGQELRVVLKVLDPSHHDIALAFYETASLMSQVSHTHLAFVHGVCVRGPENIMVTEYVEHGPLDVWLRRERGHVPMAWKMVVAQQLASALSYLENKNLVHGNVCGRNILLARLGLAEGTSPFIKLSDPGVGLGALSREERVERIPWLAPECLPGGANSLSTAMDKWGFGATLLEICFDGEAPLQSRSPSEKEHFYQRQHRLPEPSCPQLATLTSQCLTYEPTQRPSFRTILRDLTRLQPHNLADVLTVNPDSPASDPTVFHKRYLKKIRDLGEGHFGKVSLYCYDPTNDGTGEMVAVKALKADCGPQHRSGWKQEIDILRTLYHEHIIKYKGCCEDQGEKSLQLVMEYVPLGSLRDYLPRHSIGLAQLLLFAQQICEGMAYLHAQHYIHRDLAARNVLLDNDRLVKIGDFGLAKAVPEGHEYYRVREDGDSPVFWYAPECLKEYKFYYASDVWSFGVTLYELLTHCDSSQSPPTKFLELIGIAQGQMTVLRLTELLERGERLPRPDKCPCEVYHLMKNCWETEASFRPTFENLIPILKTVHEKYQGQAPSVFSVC
# [5] = compound at a concentration of 500 nM or 1 mM (not specified), cells shown as percentage
# [6] = method AA1 (3 μM ATP) or AA2 (1000 μM ATP), not stated per value
# [7] = method AA1 (90 μM ATP) or AA2 (1000 μM ATP), not stated per value
# [8] = method AA1 (30 μM ATP) or AA2 (1000 μM ATP), not stated per value
# [9] = compound at 500 nM or 1 mM, 90 μM ATP
Compound,IC50 ([1]; Table B1) [nM],IC50 ([2]; Table B1) [nM],IC50 ([3]; Table B1) [nM],IC50 (TYK2; Table B1) [nM],"IC50 [1, 6] [nM]","IC50 [2, 7] [nM]","IC50 [3, 8] [nM]","ALK % of inhibition at a concentration of 500 nM or 1 mM [4, 9] [%]",IC50 (TYK2) [nM],also measured
"O=C(Nc1ccc2cc1CCc1cccc(c1)Nc1ncc(Cl)c(n1)N2)C1CCN(C(=O)Nc2ccccc2)CC1 [Example A36, N(4)-[6-Chloro-2,4,8,22-tetraazatetracyclo[14.3.1.1(3,7).1(9,13)]docosa-1(20),3(22),4,6,9(21),10,12,16,18-nonaen-12-yl]-N(1)-phenylpiperidine-1,4-dicarboxamide trifluoroacetate]",–,–,–,–,26,2.4,6.7,48,27,–
"N#Cc1c(Cl)cncc1N1CCC(CC(=O)Nc2ccc3cc2CCc2cncc(c2)Nc2ncc(Cl)c(n2)N3)CC1 [Example A240, 2-[1-(5-Chloro-4-cyanopyridin-3-yl)piperidin-4-yl]-N-[6-chloro-2,4,8,18,22-pentaazatetracyclo[14.3.1.1(3,7).1(9,13)]docosa-1(20),3(22),4,6,9(21),10,12,16,18-nonaen-12-yl]acetamide tris(trifluoroacetate)]",–,–,–,–,> 400,1.5,80,29,244,–
"O=C(CC1CCN(c2ccncc2)CC1)Nc1ccc2cc1CCc1cncc(c1)Nc1ncc(Cl)c(n1)N2 [Example A242, N-[6-Chloro-2,4,8,18,22-pentaazatetracyclo[14.3.1.1(3,7).1(9,13)]docosa-1(20),3(22),4,6,9(21),10,12,16,18-nonaen-12-yl]-2-(1-pyridin-4-ylpiperidin-4-yl)acetamide tris(trifluoroacetate)]",–,–,–,–,> 400,40,> 400,31,> 400,–
"O=C(CC1CCN(C(=O)Nc2cccc(F)c2)CC1)Nc1ccc2cc1CCc1cncc(c1)Nc1ncc(Cl)c(n1)N2 [Example A147, 4-(2-{[6-Chloro-2,4,8,18,22-pentaazatetracyclo[14.3.1.1(3,7).1(9,13)]docosa-1(20),3(22),4,6,9(21),10,12,16,18-nonaen-12-yl]amino}-2-oxoethyl)-N-(3-fluorophenyl)piperidine-1-carboxamide bis(trifluoroacetate)]",–,–,–,–,> 100,0.3,1.9,46,7.4,–
"Clc1cnc2nc1Nc1cccc(c1)CCSCc1cccc(c1)N2 [Example D34, 6-Chloro-16-thia-2,4,8,24-tetraazatetracyclo[16.3.1.1(3,7).1(9,13)]tetracosa-1(22),3(24),4,6,9(23),10,12,18,20-nonaene trifluoroacetate]",–,–,–,–,–,–,–,–,–,"IC50 ([1]; Table D1): 136 nM; IC50 ([2]; Table D1): 123 nM; IC50 ([3]; Table D1): 91 nM; IC50 ([4]; Table D1, 90 μM ATP): > 1000 nM; IC50 (TYK2; Table D1): 211 nM"
"Cn1cnc(S(=O)(=O)N2CCC(CC(=O)Nc3ccc4cc3CCc3cncc(c3)Nc3ncc(Cl)c(n3)N4)CC2)c1 [Example A229, N-[6-Chloro-2,4,8,18,22-pentaazatetracyclo[14.3.1.1(3,7).1(9,13)]docosa-1(20),3(22),4,6,9(21),10,12,16,18-nonaen-12-yl]-2-{1-[(1-methyl-1H-imidazol-4-yl)sulfonyl]piperidin-4-yl}acetamide bis(trifluoroacetate)]",–,–,–,–,> 400,8,75,55,120,–
"O=C(Nc1ccc2cc1CCc1cccc(c1)Nc1ncc(Cl)c(n1)N2)[C@@H]1CCN(C(=O)Nc2ccccc2)C1 [Example A54, (3R)—N(3)-[6-Chloro-2,4,8,22-tetraazatetracyclo[14.3.1.1(3,7).1(9,13)]docosa-1(20),3(22),4,6,9(21),10,12,16,18-nonaen-12-yl]-N(1)-phenylpyrrolidine-1,3-dicarboxamide trifluoroacetate]",–,–,–,–,3.5,4,2.9,54,12,–
"O=C(Nc1ccccc1)N1CCN(c2ccc(-c3cc4cc(c3)Nc3ncc(Cl)c(n3)Nc3cccc(c3)OCC4)cn2)CC1 [Example D42, 4-{5-[6-Chloro-14-oxa-2,4,8,23-tetraazatetracyclo[15.3.1.1(3,7).1(9,13)]tricosa-1(21),3(23),4,6,9(22),10,12,17,19-nonaen-19-yl]pyridin-2-yl}-N-phenylpiperazine-1-carboxamide bis(trifluoroacetate)]",–,–,–,–,–,–,–,–,–,"IC50 ([1]; Table D1): 20 nM; IC50 ([2]; Table D1): 2.2 nM; IC50 ([3]; Table D1): 2.1 nM; IC50 ([4]; Table D1, 90 μM ATP): 730 nM; IC50 (TYK2; Table D1): 4 nM"
"Cn1ccc2c(NC(=O)N3CCC(C(=O)Nc4ccc5cc4CCc4cccc(c4)Nc4ncc(Cl)c(n4)N5)CC3)cccc21 [Example A41, N(4)-[6-Chloro-2,4,8,22-tetraazatetracyclo[14.3.1.1(3,7).1(9,13)]docosa-1(20),3(22),4,6,9(21),10,12,16,18-nonaen-12-yl]-N(1)-(1-methyl-1H-indol-4-yl)piperidine-1,4-dicarboxamide trifluoroacetate]",–,–,–,–,157,5.8,12,58,102,–
"O=C(CC1CCN(c2ccccc2)CC1)Nc1ccc2cc1CCc1cncc(c1)Nc1ncc(Cl)c(n1)N2 [Example A219, N-[6-Chloro-2,4,8,18,22-pentaazatetracyclo[14.3.1.1(3,7).1(9,13)]docosa-1(20),3(22),4,6,9(21),10,12,16,18-nonaen-12-yl]-2-(1-phenylpiperidin-4-yl)acetamide tris(trifluoroacetate)]",–,–,–,–,> 200,12,90,20,180,–
"O=C(Nc1ccc2cc1CCc1cccc(c1)Nc1ncc(Cl)c(n1)N2)C1CCCN(C(=O)Nc2ccccc2)C1 (centres unmarked) [Example A50, N(3)-[6-Chloro-2,4,8,22-tetraazatetracyclo[14.3.1.1(3,7).1(9,13)]docosa-1(20),3(22),4,6,9(21),10,12,16,18-nonaen-12-yl]-N(1)-phenylpiperidine-1,3-dicarboxamide trifluoroacetate]",–,–,–,–,13,2.4,6.5,37,21,–

# Continued, in another order:
IC50 ([1]; Table B1) [nM],IC50 ([2]; Table B1) [nM],IC50 ([3]; Table B1) [nM],IC50 (TYK2; Table B1) [nM],"IC50 [1, 6] [nM]","IC50 [2, 7] [nM]","IC50 [3, 8] [nM]","ALK % of inhibition at a concentration of 500 nM or 1 mM [4, 9] [%]",IC50 (TYK2) [nM],Compound,also measured
376,44,85,288,–,–,–,–,–,"O=C(Nc1cccc(N2CCOCC2)n1)Nc1ccc2cc1CCc1cccc(c1)Nc1ncc(Cl)c(n1)N2 [Example B133, N-[6-Chloro-2,4,8,22-tetraazatetracyclo[14.3.1.1(3,7).1(9,13)]docosa-1(20), 3(22),4,6,9(21),10,12,16,18-nonaen-12-yl]-N′-(6-morpholin-4-ylpyridin-2-yl)urea bis(trifluoroacetate)]","ALK % of inhibition at a concentration of 500 nM or 1 mM [4, 5]: 2.5%"
0.33,0.25,0.1,0.35,–,–,–,–,–,"O=S(=O)(Nc1ccc2cc1CCc1cccc(c1)Nc1ncc(Cl)c(n1)N2)c1cccc(Cl)c1 [Example B138, 3-Chloro-N-[6-chloro-2,4,8,22-tetraazatetracyclo[14.3.1.1(3,7).1(9,13)]docosa-1(20),3(22),4,6,9(21),10,12,16,18-nonaen-12-yl]benzenesulfonamide trifluoroacetate]","IC50 ([4]; Table B1, cells without percent sign): 100 nM"
1850,47,126,222,–,–,–,–,–,"CCOC(=O)c1coc(Nc2ccc3cc2CCc2cccc(c2)Nc2ncc(Cl)c(n2)N3)n1 [Example B278, Ethyl 2-{[6-chloro-2,4,8,22-tetraazatetracyclo[14.3.1.1(3,7).1(9,13)]docosa-1(20),3(22),4,6,9(21),10,12,16,18-nonaen-12-yl]amino}-1,3-oxazole-4-carboxylate bis(trifluoroacetate)]","ALK % of inhibition at a concentration of 500 nM or 1 mM [4, 5]: 10%"
59,12,19,43,–,–,–,–,–,"CC(C)(C)OC(=O)N1CCN(Cc2ccc3cc2CCc2cccc(c2)Nc2ncc(Cl)c(n2)N3)CC1 [Example B221, tert-Butyl 4-{[6-chloro-2,4,8,22-tetraazatetracyclo[14.3.1.1(3,7).1(9,13)]docosa-1(20),3(22),4,6,9(21),10,12,16,18-nonaen-12-yl]methyl}piperazine-1-carboxylate bis(trifluoroacetate)]","ALK % of inhibition at a concentration of 500 nM or 1 mM [4, 5]: 8.1%"
7.8,3,3.4,6.9,–,–,–,–,–,"CCCS(=O)(=O)NCCNC(=O)Nc1ccc2cc1CCc1cccc(c1)Nc1ncc(Cl)c(n1)N2 [Example B326, N-{2-[({[6-Chloro-2,4,8,22-tetraazatetracyclo[14.3.1.1(3,7).1(9,13)]docosa-1(20),3(22),4,6,9(21),10,12,16,18-nonaen-12-yl]amino}carbonyl)amino]ethyl}propane-1-sulfonamide trifluoroacetate]",ALK % of inhibition at a concentration of 500 nM or 1 mM ([4]; percentage inhibition of the example compound at a concentration of 500 nM or 1 mM (not specified which)): 19%
